Reference: ChEMBL document CHEMBL5036314, “Structure-Guided Design of the First Noncovalent Small-Molecule Inhibitor of CRM1” (J Med Chem, 2021)
Calls of active or inactive are those of the source. No cut-off for these calls is given here.

How the values were obtained:
[1] = biological target: Exportin-1 (Saccharomyces cerevisiae) (UniProt P30822); experiment: Inhibition of GST-NES MVM binding to yeast CRM1 at 20 uM by pull down assay
HeLa = experiment: Anti-cancer activity against human HeLa cells assessed as cell viability at 20 uM incubated for 2 hrs by EdU incorporation based assay; type: functional
Saccharomyces cerevisiae = experiment: Inhibition of NES binding to yeast CRM1-T539 mutant in absence of RanGTP at 20 uM by pull down assay

SMILES	inhibition [1]	Activity (HeLa)	inhibition (Saccharomyces cerevisiae)
CC(C)CCNc1cc(C[S+]([O-])c2cc(C(F)(F)F)cc(C(F)(F)F)c2)on1 (stereo not drawn)	inactive	inactive	
CC(C)CCNc1cc(C[S+]([O-])c2cc(C(F)(F)F)cc(C(F)(F)F)c2)ccn1 (stereo not drawn)	inactive	inactive	
FC(F)(F)c1cc(SCc2ccnc(Cl)c2)cc(C(F)(F)F)c1	inactive	inactive	
[O-][S+](Cc1ccnc(Cl)c1)c1cc(C(F)(F)F)cc(C(F)(F)F)c1 (stereo not drawn)	inactive	inactive	
[O-][S+](Cc1cc(Br)no1)c1cc(C(F)(F)F)cc(C(F)(F)F)c1 (stereo not drawn)	inactive	inactive	
FC(F)(F)c1cc(S/C=C/CBr)cc(C(F)(F)F)c1	Active	inactive	Active
